For assay [1], the target named is T1, recombinant human Tie-2 protein (Homo sapiens, UniProt Q02763).
T1 construct: purchased Thermo Fisher Scientific Inc. PV3628
The assay is described as follows: Z′-Lyte FRET enzymatic activity assay of Tie-2 kinase. Format: biochemical. To be noted: for Inhibition (%) @10 μg/ml / inhibition at 10 µg/mL: 10 μg/mL preliminary screening, Table S1; for inhibition at 5 µg/mL: read-out: Kinase Inhibition (%) at 5 μg/mL (± SD).
Procedure: In order to assess the biological inhibitory activity of the VS compounds, Z’-Lyte enzymatic activity assay based on FRET (Fluorescence Resonance Energy Transfer) technology was developed as described above. […] At first, all the compounds obtained from both filtering strategies were preliminary screened for their ability to inhibit Tie-2 kinase activity at the concentration of 10 μg/mL.
The Tie-2 kinase inhibitor (CAS#: 948557-43-5, purity ≥ 97%) was purchased from Merck Calbiochem (Darmstadt, Germany) and used as a positive control inhibitor in bioassays[40]. […] All the purchased screening compounds were firstly dissolved in dimethyl sulfoxide (DMSO) at a stock concentration of 5 mg/ml. The final working concentration of DMSO is less than 1%.
Compounds were tested for their ability to inhibit Tie-2 kinase activity using Z′-Lyte® kinase assay kit (ser/thr 5 peptide) with NUNC 384-well plate. In the first step, the test compounds and ATP solution were firstly prepared at 4 × desired concentration. The mixture of recombinant human Tie-2 protein and non-phosphorylated peptide at 2 × desired concentration was prepared in kinase reaction buffer A consisting of 50 mM HEPES (pH 7.5), 0.01% BRIJ-35, 10 mM MgCl2, 4 mM MnCl2, 1 mM EGTA and 2 mM DTT. Reactions were then carried out in a solution containing 2.5 μL test compounds, 5 μL Tie-2/Tyr 05 peptide mixture (10 ng Tie-2 and 2 μM Tyr 05 peptide) and 2.5 μL ATP (100 μM). Then, the assay plate was shaken for 30 seconds on a plate shaker, and incubated for 1 hour at room temperature (20~25 °C). After sufficient kinase reactions, 5 μL development reagent A was added to each well, and the plate was incubated for another hour. Finally, 5 μL stop reagent was added to terminate the reactions, and the coumarin and fluorescein emission signals (excitation: 400 nm; emission: 445 and 520 nm, respectively) were measured on a fluorescence plate reader (BioTek Synergy 4).

In assay [2] the test system is Tie-2. Details: method as in PMID 17618114. To be noted: tool inhibitor; read-out: IC50 against Tie-2, previously reported; cited from earlier work.
The mark [3] stands for this setting: Z′-Lyte assay, 100 μM ATP, n ≥ 2 per concentration, read-out: IC50 (half-maximal inhibitory concentration), Tie-2 kinase.
Setting [4] is: in the dose-response figure, read-out: IC50 (dose-dependent inhibitory effect), Tie-2 kinase (converted).

Read-outs that look alike come from different tables or passages of the source.

T1 sequence (Q02763 23-1124): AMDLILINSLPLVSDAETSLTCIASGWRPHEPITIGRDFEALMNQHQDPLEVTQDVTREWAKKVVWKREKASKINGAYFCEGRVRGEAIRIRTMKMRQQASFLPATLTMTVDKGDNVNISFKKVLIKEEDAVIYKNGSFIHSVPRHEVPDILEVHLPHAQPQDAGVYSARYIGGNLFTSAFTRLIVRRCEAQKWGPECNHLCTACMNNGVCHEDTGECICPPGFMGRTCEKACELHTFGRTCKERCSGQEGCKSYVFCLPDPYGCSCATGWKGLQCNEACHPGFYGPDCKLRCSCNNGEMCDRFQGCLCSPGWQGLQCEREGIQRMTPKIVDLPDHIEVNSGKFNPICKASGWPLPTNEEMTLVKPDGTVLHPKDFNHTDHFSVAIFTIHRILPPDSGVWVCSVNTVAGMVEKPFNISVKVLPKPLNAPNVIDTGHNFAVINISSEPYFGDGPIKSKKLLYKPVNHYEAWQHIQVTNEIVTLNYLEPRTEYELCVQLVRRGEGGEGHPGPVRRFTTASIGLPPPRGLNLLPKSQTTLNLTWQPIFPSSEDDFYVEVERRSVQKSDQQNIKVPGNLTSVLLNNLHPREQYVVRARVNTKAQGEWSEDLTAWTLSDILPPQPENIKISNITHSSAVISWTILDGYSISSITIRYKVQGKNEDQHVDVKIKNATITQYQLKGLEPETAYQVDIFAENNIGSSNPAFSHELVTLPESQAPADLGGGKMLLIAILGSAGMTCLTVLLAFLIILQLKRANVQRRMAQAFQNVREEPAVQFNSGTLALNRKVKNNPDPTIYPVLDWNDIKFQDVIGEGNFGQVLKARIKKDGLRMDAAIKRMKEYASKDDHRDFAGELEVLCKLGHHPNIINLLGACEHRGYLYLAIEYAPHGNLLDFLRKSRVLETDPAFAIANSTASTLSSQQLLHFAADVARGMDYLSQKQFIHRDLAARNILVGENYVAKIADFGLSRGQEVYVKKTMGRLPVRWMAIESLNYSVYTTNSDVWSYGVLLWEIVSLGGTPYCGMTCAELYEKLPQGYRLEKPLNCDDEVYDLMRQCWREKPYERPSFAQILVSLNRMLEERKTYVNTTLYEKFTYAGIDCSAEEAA

Consider `COc1ccc2cc(-c3nc(-c4ccc([S+](C)[O-])cc4)[nH]c3-c3ccncc3)ccc2c1` (stereo not shown) [Tie-2 inhibitor, reference compound], for which, in assay [1] (5 μg/mL, n ≥ 2), the “Kinase Inhibition (%) at 5 μg/mL (± SD)” value turned out to be 93.01 ± 1.02%. For the same molecule, the “Inhibition (%) @10 μg/ml” value in assay [1] is 95.2±1.58%. The IC50 in assay [2] is 0.25 µM.
Regarding `CC(=O)c1c(C)cc(C)c(CSc2ccccn2)c1C` [TP-C2-22], the “Inhibition (%) @10 μg/ml” value in assay [1] was 90.2±6.92%. For the same molecule, the IC50 in assay [1] (setting [3]) stood at 8.44 ± 0.93 µM.
For the molecule `O=C(Nc1ccc(NC(=S)NC(=O)c2cccc3ccccc23)cc1)c1cccs1` [TP-C2-15], the “Inhibition (%) @10 μg/ml” value in assay [1] came out at 72.64±14.95%.
As for `O=C(COc1ccc(S(=O)(=O)N2CCc3ccccc32)cc1)NCc1cccnc1` [TP-C2-52], the “Inhibition (%) @10 μg/ml” value in assay [1] is recorded as 64.42±0.23%.
Still for that read-out and setting: the result for `COc1ccc(C(=O)NC(=S)Nc2ccc(-c3nc4cc(C)c(C)cc4o3)cc2)cc1OC` [TP-C2-8] reads 68.53±6.25%.
`N#Cc1cc2c([nH]c1=O)CC(c1ccccc1)CC2=NNc1ccccc1` (stereo not shown) [TP-C1-2]: the “Inhibition (%) @10 μg/ml” value in assay [1] was 56.84±0.18%.
Regarding `O=C(CN(Cc1ccc(F)cc1)S(=O)(=O)c1ccc(Cl)cc1)NCc1ccccn1` [TP-C1-27], the “Inhibition (%) @10 μg/ml” value in assay [1] is 4.93±5.56%.
Turning to `O=C(NC(=S)Nc1cccc2c(O)cccc12)c1ccc(-c2ccccc2)cc1` [TP-C2-50], the inhibition at 10 µg/mL in assay [1] was determined as 97.8 ± 1.13%. For the same molecule, the IC50 in assay [1] (setting [3]) is 1.73 ± 0.17 µM; in assay [1] (setting [4]) it was 1.73 µM.
Consider `COc1ccc(C(CC(=O)c2ccccc2)CC(=O)c2ccccc2)cc1OC` [TP-C2-23], for which the “Inhibition (%) @10 μg/ml” value in assay [1] stood at 47.13±8.4%.
As for `Cc1ccc2nc(-c3ccc(NC(=S)NC(=O)COc4ccccc4C)cc3)sc2c1` [TP-C2-24], the “Inhibition (%) @10 μg/ml” value in assay [1] was found to be 83.25±0.08%. The IC50 in assay [1] (setting [3]) is 17.5 ± 1.16 µM.
As for `COc1ccc(-c2nnc(SC(CC(=O)NCc3ccco3)c3ccc(C)cc3)[nH]2)cc1` (stereo not shown) [TP-C2-45], in assay [1], the “Inhibition (%) @10 μg/ml” value came to 65.92±4.36%.
For `O=C(Nc1ccccc1C(=O)NCc1cccnc1)c1cccc(F)c1` [TP-C2-55], the “Inhibition (%) @10 μg/ml” value in assay [1] is listed as 81.27±3.01%. The IC50 in assay [1] (setting [3]) was 8.21 ± 0.46 µM.
`Cc1ccccc1-c1nc(S(=O)(=O)c2ccc(Cl)cc2)c(NCc2cccnc2)o1` [TP-C1-43]: the “Inhibition (%) @10 μg/ml” value in assay [1] is -0.28±1.12%.
Take `CCN1C(=O)NC(c2ccc(Cl)cc2)C(C(=O)OCCc2ccccc2)=C1C` (racemic) [TP-C2-3]: in assay [1], the “Inhibition (%) @10 μg/ml” value was 56.11±13.15%.
The same measure, in the same setting: the result for `O=C(c1cc(-c2ccncc2)nc2ccc(Cl)cc12)N1CCN(C(=O)C2CCCO2)CC1` (stereo not shown) [TP-C2-36] reads 61.48±4.57%.
For the molecule `CCc1ccc(C(=O)NC(=S)Nc2ccc(NC(=O)c3cccc(Cl)c3)cc2)cc1` [TP-C3-43], the inhibition at 5 µg/mL in assay [1] (5 μg/mL, n ≥ 2) turned out to be 77.74 ± 0.42%. Further, the IC50 in assay [1] (setting [3]) stood at 1.64 µM.
`c1ccc(-c2cc(-c3ccc4c(c3)OCCO4)c(-c3ccccc3)nn2)cc1` [TP-C2-48]: the “Inhibition (%) @10 μg/ml” value in assay [1] is 43.96±2.34%.
Still for that read-out and setting: to `CC(=O)c1cccc(NC(=O)CSc2nnc(CSCc3ccccc3F)n2C)c1` [TP-C2-49] belongs 63.31±0.29%.
`O=c1cc(-c2ccccc2)c2ccc(OCc3cccc(C(F)(F)F)c3)cc2o1` [TP-C1-18]: the “Inhibition (%) @10 μg/ml” value in assay [1] is 39.7±2.94%. For the same molecule, in assay [1] (VS candidates of Strategy 1, preliminary screening at 10 μg/mL), the “Tie-2 inhibitory activity in words (active / inactive)” value was “inactive”.
On to `Cn1c(=O)[nH]c(=O)c2c1nc(NCCCO)n2CC(O)COc1ccccc1` (stereo not shown) [TP-C2-2], for which the “Inhibition (%) @10 μg/ml” value in assay [1] was 51.41±2.9%.
`CCOc1cc(CNCCc2ccc(S(N)(=O)=O)cc2)ccc1OCc1ccccc1.Cl` [TP-C2-42]: the “Inhibition (%) @10 μg/ml” value in assay [1] was 23.47±2.17%.
Turning to `Cc1ccccc1C(=O)NC(=S)Nc1ccc(NC(=O)c2cc3ccccc3o2)cc1` [TP-C2-47], the “Inhibition (%) @10 μg/ml” value in assay [1] was found to be 67.14±5.68%.
Still for that read-out and setting: to `COc1ccc(CNC(=O)CSc2nc3ccc(NC(=O)c4ccccc4C)cc3s2)cc1` [TP-C1-32] belongs 47.23±0.53%.
As for `CCCOc1cccc(C(=O)NC(=S)Nc2ccc(NC(=O)c3ccccc3)cc2)c1` [TP-C3-14], the inhibition at 5 µg/mL in assay [1] (5 μg/mL, n ≥ 2) is 43 ± 1.08%. The IC50 in assay [1] (setting [3]) came out at 22.7 µM.
`COc1ccc(C(=O)NC(=S)Nc2ccc(NC(=O)c3ccccc3)cc2)cc1[N+](=O)[O-]` [TP-C3-15]: in assay [1] (5 μg/mL, n ≥ 2), the inhibition at 5 µg/mL was 35.1 ± 0.63%. For the same molecule, in assay [1] (setting [3]), the IC50 was 13.8 µM. In addition, the “fold decline in activity compared to TP-C2-9” value in assay [1] (from IC50 values) was ~ 10 fold.
With `CC(=O)Nc1c(O)nc(SCC(=O)Nc2ccc(C(C)=O)cc2)[nH]c1=O` [TP-C1-47], the inhibition at 10 µg/mL in assay [1] was found to be 81.9 ± 1.73%. Further, the IC50 in assay [1] (setting [3]) is 5.15 ± 0.4 µM; in assay [1] (setting [4]), 5.15 µM.
Take `CCc1ccc(C(=O)NC(=S)Nc2ccc(NC(=O)c3ccc(Cl)cc3Cl)cc2)cc1` [TP-C3-55]: in assay [1] (5 μg/mL, n ≥ 2), the inhibition at 5 µg/mL was 60.22 ± 0.55%. Besides, in assay [1] (setting [3]), the IC50 was 3.47 µM.
As for `O=C(CC1c2ccccc2Oc2ccccc21)Nc1ccccn1` [TP-C1-30], in assay [1], the “Inhibition (%) @10 μg/ml” value came out at 11.44±0.49%.
For the molecule `CCOc1cc(C2C(C(=O)OCCc3ccccc3)=C(C)NC3=C2C(=O)CCC3)ccc1O` (stereo not shown) [TP-C2-4], in assay [1], the “Inhibition (%) @10 μg/ml” value came to 69.77±2.75%.
Regarding `O=C(NC(=S)Nc1ccc(-c2nc3ccccc3o2)c(O)c1)c1cccc(Br)c1` [TP-C2-10], the “Inhibition (%) @10 μg/ml” value in assay [1] amounted to 46.26±3.21%.
The same measure, in the same setting: to `O=C(OCC(=O)c1ccccc1Cl)c1ccc2c(c1)-c1ccccc1C2=O` [TP-C2-21] belongs 75.19±7.09%; to `Cc1nc(-c2cccnc2)sc1C(=O)NCc1ccccn1` [TP-C2-60], 66.88±8.04%.
Consider `COCCCN1C(=O)C(O)=C(C(=O)c2ccc(Cl)cc2)C1c1ccc(O)cc1` (stereo not shown) [TP-C1-26], for which, in assay [1], the “Inhibition (%) @10 μg/ml” value is listed as 7.19±0.3%.
Regarding `CCOC(=O)CNS(=O)(=O)c1cc(-c2nnc(Nc3cccc(C)c3)c3ccccc23)ccc1C` [TP-C1-16], the “Inhibition (%) @10 μg/ml” value in assay [1] amounted to 9.52±4.54%.
The same measure, in the same setting: to `O=c1[nH]c(-c2ccc(OCc3ccccc3F)cc2)nc2ccccc12` [TP-C1-40] belongs 2.81±1.73%; to `Cc1ccc(C(=O)CSc2nc3ccccc3c(=O)n2N)o1` [TP-C2-43], 55.24±1.85%; to `O=C(CN(c1ccc2c(c1)OCCO2)S(=O)(=O)c1ccccc1)Nc1cccnc1` [TP-C1-38], 12.5±2.86%.
Take `CC1=C(C(=O)Nc2ccc(C)cc2C)C(c2ccc(OCc3ccccc3)cc2)NC(=S)N1` (racemic) [TP-C2-40]: in assay [1], the “Inhibition (%) @10 μg/ml” value was 95.39±0.98%. Further, the IC50 in assay [1] (setting [3]) stood at 4.69 ± 0.37 µM.
Turning to `O=C(NCCOc1ccccc1)c1n[nH]c(=O)c2ccccc12` [TP-C2-44], the “Inhibition (%) @10 μg/ml” value in assay [1] amounted to 52.94±2.54%.
`COC(=O)c1ccc(C)c(NC(=O)c2cc(-c3ccccn3)nc3ccc(Br)cc23)c1` [TP-C2-33]: in assay [1], the inhibition at 10 µg/mL amounted to 95.2 ± 1.81%. For the same molecule, the IC50 was 3.31 ± 0.23 µM in assay [1] (setting [3]) and 3.32 µM in assay [1] (setting [4]).
Regarding `Cc1cc(NC(=S)NC(=O)c2ccc(C)c([N+](=O)[O-])c2)ccc1NC(=O)c1ccccc1` [TP-C3-26], the inhibition at 5 µg/mL in assay [1] (5 μg/mL, n ≥ 2) is 23.11 ± 0.13%. Also, the IC50 in assay [1] (setting [3]) was found to be 48.6 µM.
For `O=C(NCCNC(=O)c1cc2ccccc2cc1O)c1cc2ccccc2cc1O` [TP-C1-7], the “Inhibition (%) @10 μg/ml” value in assay [1] worked out at 9.84±11.04%.
Still for that read-out and setting: to `CC(C)CNC(=O)c1ccccc1NC(=O)c1ccccc1N(C)S(=O)(=O)c1ccccc1` [TP-C2-29] belongs 55.92±5.4%; to `CCc1ccc2oc(-c3ccc(NC(=S)NC(=O)c4cc5ccccc5o4)cc3)nc2c1` [TP-C1-15], -0.66±5.93%.
Regarding `COc1ccc(C(=O)NC(=S)Nc2ccc(NC(=O)c3cccc(C)c3)cc2)cc1OC` [TP-C2-9], the inhibition at 10 µg/mL in assay [1] is 81.6 ± 2.85%. In addition, the IC50 in assay [1] (setting [3]) was 1.86 ± 0.18 µM; in assay [1] (setting [4]), 1.87 µM.
For `O=C(NCCc1cccc2ccccc12)C1CCCN1S(=O)(=O)c1ccc2ccccc2c1` (stereo not shown) [TP-C1-29], the “Inhibition (%) @10 μg/ml” value in assay [1] turned out to be 39.83±5.94%.
On to `CCOc1ccc2c(c1)-c1c(ssc1=S)C(C)(C)N2C(=O)CSc1nc(C)cc(O)n1` [TP-C1-17], for which the inhibition at 10 µg/mL in assay [1] was 89.5 ± 2.93%. The IC50 is 4.45 ± 0.36 µM in assay [1] (setting [3]) and 4.45 µM in assay [1] (setting [4]).
For `Cc1cccc(C(=O)Nc2ccc(NC(=S)NC(=O)c3ccccc3)cc2)c1` [TP-C3-3], the inhibition at 5 µg/mL in assay [1] (5 μg/mL, n ≥ 2) was 67.3 ± 0.78%. Further, the IC50 in assay [1] (setting [3]) was found to be 2.82 µM.
With `O=C(OCc1ccccc1)c1cn(-c2ccccc2)nc1-c1ccncc1` [TP-C1-37], the “Inhibition (%) @10 μg/ml” value in assay [1] was found to be 25.51±1.18%. For the same molecule, the IC50 in assay [1] (setting [3]) was 36.1 ± 1.33 µM.
For the molecule `Cc1cccc(C(=O)Nc2ccc(NC(=S)NC(=O)c3ccccc3Cl)cc2)c1` [TP-C3-45], the inhibition at 5 µg/mL in assay [1] (5 μg/mL, n ≥ 2) worked out at 49.3 ± 0.95%. Besides, the IC50 in assay [1] (setting [3]) stood at 2.41 µM.
Turning to `Cc1ccccc1COc1ccc(-c2nnn(CC(=O)Nc3ccc4c(c3)OCO4)n2)cc1` [TP-C2-28], in assay [1], the “Inhibition (%) @10 μg/ml” value is listed as 40.32±14.48%.
Still for that read-out and setting: the result for `Cc1ccccc1OCC(=O)OCC(=O)c1ccc(OCc2ccccc2)cc1` [TP-C2-20] reads 36.45±0.94%; that for `Fc1ccc(C2CC(c3cccs3)=NN2C(=S)NCCc2ccccc2)cc1` (racemic) [TP-C1-39], 56.09±2.14%.
Consider `Cc1cc(NC(=S)NC(=O)c2ccc3c(c2)OCO3)ccc1NC(=O)c1ccccc1` [TP-C2-30], for which, in assay [1], the “Inhibition (%) @10 μg/ml” value is on record as 81.26±3.96%. In addition, in assay [1] (setting [3]), the IC50 amounted to 2.05 ± 0.11 µM.
`Cc1ccccc1C(=O)Nc1cccc(Oc2ccc3c(c2)C(=O)NC3=O)c1` [TP-C2-26]: the “Inhibition (%) @10 μg/ml” value in assay [1] was 61.34±20.45%.

Source of the values: publication PMC5120310, “In Silico Exploration for Novel Type-I Inhibitors of Tie-2/TEK: The Performance of Different Selection Strategy in Selecting Virtual Screening Candidates” (Scientific Reports, 2016).
